Measurements from patent US12679824B2 (Hoffmann-La Roche Inc., priority 2020, dated 2026).

test system: Acinetobacter baumannii ATCC17961; experiment: 90% Growth Inhibitory Concentration (IC90) determination, antimicrobial susceptibility testing; format: cell-based; conditions: Acinetobacter baumannii, ATCC17961, 16 h, Acinetobacter baumannii ATCC17961; Iso-Sensitest broth; growth by optical density at 600 nm over 16h; concentration inhibiting 90% of the growth; read-out: ATCC 17961 IC90
Experimental: Antimicrobial Susceptibility Testing:
90% Growth Inhibitory Concentration (IC90) Determination
The in vitro antimicrobial activity of the compounds was determined according to the following procedure:
The assay used a 10-points Iso-Sensitest broth medium to measure quantitatively the in vitro activity of the compounds against Acinetobacter baumannii ATCC17961.
Stock compounds in DMSO were serially twofold diluted (e.g. range from 50 to 0.097 μM final concentration) in 384 wells microtiter plates and inoculated with 49 μl the bacterial suspension in Iso-Sensitest medium to have a final cell concentration of ~5×10^(5) CFU/ml in a final volume/well of 50 ul/well. Microtiter plates were incubated at 35±2° C.
Bacterial cell growth was determined with the measurement of optical density at λ=600 nm each 20 minutes over a time course of 16h. Growth inhibition was calculated during the logarithmic growth of the bacterial cells with determination of the concentration inhibiting 50% (IC50) and 90% (IC90) of the growth.
Table 1 provides the 90% growth inhibitory concentrations (IC90) in micromoles per liter of the compounds of present invention obtained against the strain Acinetobacter baumannii ATCC17961.

| SMILES | IC90 |
| --- | --- |
| Cn1c(-c2cn(-c3cnccn3)nc2C(F)(F)F)cnc1C(=O)Nc1ccc(C(=O)N2CCN(C(=O)C3CCNCC3)CC2)c(Cl)c1 [Example A20, N-[3-chloro-4-[4-(piperidine-4-carbonyl)piperazine-1-carbonyl]phenyl]-1-methyl-5-[1-pyrazin-2-yl-3-(trifluoromethyl)pyrazol-4-yl]imidazole-2-carboxamide] | 480 nM |
| CCN(CC)C(=O)c1ccc(NC(=O)c2ncc(-c3cn(-c4ccc(N)cn4)nc3C(F)(F)F)n2C)cc1Cl [Example Z76, 5-[1-(5-amino-2-pyridyl)-3-(trifluoromethyl)pyrazol-4-yl]-N-[3-chloro-4-(diethylcarbamoyl)phenyl]-1-methyl-imidazole-2-carboxamide] | 1140 nM |
| Cc1nc(N)ccc1-n1cc(-c2cnc(C(=O)Nc3ccc(C(=O)N4CCN(C(=O)C5CCNCC5)CC4)c(Cl)c3)n2C)c(C(F)(F)F)n1 [Example Z79, 5-[1-(6-amino-2-methyl-3-pyridyl)-3-(trifluoromethyl)pyrazol-4-yl]-N-[3-chloro-4-[4-(piperidine-4-carbonyl)piperazine-1-carbonyl]phenyl]-1-methyl-imidazole-2-carboxamide] | 1200 nM |

Next, values leading:

| IC90 | SMILES |
| --- | --- |
| 510 nM | Cn1c(-c2cn(-c3ccc(N)cn3)nc2C(F)(F)F)cnc1C(=O)Nc1ccc(C(=O)N2CCC3(CC2)CCN(C(=O)[C@@H]2C[C@@H](O)CN2)C3)c(Cl)c1 [Example Z22, 5-[1-(5-amino-2-pyridyl)-3-(trifluoromethyl)pyrazol-4-yl]-N-[3-chloro-4-[2-[(2S,4R)-4-hydroxyprolyl]-2,8-diazaspiro[4.5]decane-8-carbonyl]phenyl]-1-methyl-imidazole-2-carboxamide] |
| 250 nM | COc1ccnc(-n2cc(-c3cnc(C(=O)Nc4ccc(C(=O)N5CCN(C(=O)C6CCNCC6)CC5)c(Cl)c4)n3C)c(C(F)(F)F)n2)c1 [Example A12, N-[3-chloro-4-[4-(piperidine-4-carbonyl)piperazine-1-carbonyl]phenyl]-5-[1-(4-methoxy-2-pyridyl)-3-(trifluoromethyl)pyrazol-4-yl]-1-methyl-imidazole-2-carboxamide] |
| 950 nM | Cn1c(-c2cn(-c3ccc(N)cn3)nc2C(F)(F)F)cnc1C(=O)Nc1ccc(C(=O)N[C@H]2C[C@H](N)C2)c(Cl)c1 [Example Z19, N-[4-[trans-(3-aminocyclobutyl)carbamoyl]-3-chloro-phenyl]-5-[1-(5-amino-2-pyridyl)-3-(trifluoromethyl)pyrazol-4-yl]-1-methyl-imidazole-2-carboxamide] |
| 270 nM | CN(C(=O)c1ccc(NC(=O)c2ncc(-c3cn(-c4ccc(N)cn4)nc3C(F)(F)F)n2C)cc1Cl)C1CCN(C(=O)[C@@H]2C[C@@H](O)CN2)CC1 [Example Z35, 5-[1-(5-amino-2-pyridyl)-3-(trifluoromethyl)pyrazol-4-yl]-N-[3-chloro-4-[[1-[(2S,4R)-4-hydroxyprolyl]-4-piperidyl]-methyl-carbamoyl]phenyl]-1-methyl-imidazole-2-carboxamide] |
| 1220 nM | Cn1c(-c2cn(-c3ccc(N)cn3)nc2C(F)(F)F)cnc1C(=O)Nc1ccc(C(=O)NCC2(NC(=O)[C@@H]3CC(O)CN3)CC2)c(Cl)c1 (stereo in doubt) [Example Z43, 5-[1-(5-amino-2-pyridyl)-3-(trifluoromethyl)pyrazol-4-yl]-N-[3-chloro-4-[[1-[[(2S,4R)-4-hydroxyprolyl]amino]cyclopropyl]methylcarbamoyl]phenyl]-1-methyl-imidazole-2-carboxamide] |

same assay, conditions: Acinetobacter baumannii, ATCC17961, 16 h, read-out: ATCC 17961 IC90

| SMILES | IC90 |
| --- | --- |
| Cn1c(-c2cn(-c3ccc(N)cn3)nc2C(F)(F)F)cnc1C(=O)Nc1ccc(C(=O)NCCN)c(Cl)c1 [Example Z17, N-[4-(2-aminoethylcarbamoyl)-3-chloro-phenyl]-5-[1-(5-amino-2-pyridyl)-3-(trifluoromethyl)pyrazol-4-yl]-1-methyl-imidazole-2-carboxamide] | 990 nM |
